Data taken from ChEMBL document CHEMBL1201862, “PubChem BioAssay data set” (2004).
Several values for one entry are separate records, joined by “and”; a condition that tells them apart may be missing. Equal values may be shown once.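 Assay format: 96-well plates, 48-hour exposure. GI50 is the concentration that inhibits growth by half.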 Activity calls are given as the source filed them. Rule as the data show it: active = GI50 up to about 1.1 µM and inactive = higher.

What was measured:
Assay in all cases: NCI anticancer screen, dose series, 48 h
UACC-62 = system: UACC-62
MOLT-4 = system: MOLT-4
HL-60 = system: HL-60
SK-MEL-28 = system: SK-MEL-28
COLO 205 = system: COLO 205
MDA-N = system: MDA-N
NCI-H226 = system: NCI-H226
SF-539 = system: SF-539
HOP-62 = system: HOP-62
SR = system: SR
LOX IMVI = system: LOX IMVI
A549 = system: A549
SK-MEL-2 = system: SK-MEL-2
SF-268 = system: SF-268
PC-3 = system: PC-3
U-251 = system: U-251
M14 = system: M14
OVCAR-5 = system: OVCAR-5
OVCAR-4 = system: OVCAR-4
NCI-H522 = system: NCI-H522
786-0 = system: 786-0
UACC-257 = system: UACC-257
OVCAR-3 = system: OVCAR-3
T47D = system: T47D
CAKI-1 = system: CAKI-1
EKVX = system: EKVX
NCI-H23 = system: NCI-H23
OVCAR-8 = system: OVCAR-8
Malme-3M = system: Malme-3M
HCC 2998 = system: HCC 2998
NCI-H460 = system: NCI-H460
MDA-MB-435 = system: MDA-MB-435
MCF7 = system: MCF7
SK-MEL-5 = system: SK-MEL-5
SF-295 = system: SF-295
HCT-116 = system: HCT-116
SK-OV-3 = system: SK-OV-3
UO-31 = system: UO-31
KM12 = system: KM12
DU-145 = system: DU-145
SN12C = system: SN12C
MDA-MB-231 = system: MDA-MB-231
NCI/ADR-RES = system: NCI/ADR-RES
ACHN = system: ACHN
SNB-19 = system: SNB-19
HOP-92 = system: HOP-92
K562 = system: K562
RXF 393 = system: RXF 393
SW-620 = system: SW-620
SNB-75 = system: SNB-75
CCRF-CEM = system: CCRF-CEM
HCT-15 = system: HCT-15
IGROV-1 = system: IGROV-1
HT-29 = system: HT-29
A498 = system: A498
RPMI-8226 = system: RPMI-8226
TK-10 = system: TK-10
Hs-578T = system: Hs-578T

## O/N=C1\CC2(N3CCOCC3)CCC1(Cc1ccccc1)CC2
UACC-62
  GI50: > 10 µM (inactive)
MOLT-4
  GI50: > 100 µM (inactive)
HL-60
  GI50: > 100 µM (inactive)
SK-MEL-28
  GI50: > 100 µM (inactive)
COLO 205
  GI50: > 100 µM (inactive)
MDA-N
  GI50: > 100 µM (inactive)
NCI-H226
  GI50: 35 µM (inactive)
SF-539
  GI50: 23.2 µM (inactive)
HOP-62
  GI50: 23 µM (inactive)
SR
  GI50: > 100 µM (inactive)
LOX IMVI
  GI50: 2.55 µM (inactive)
A549
  GI50: > 100 µM (inactive)
SK-MEL-2
  GI50: 37.4 µM (inactive)
SF-268
  GI50: 30.9 µM (inactive)
PC-3
  GI50: > 100 µM (inactive)
U-251
  GI50: 19.4 µM (inactive)
M14
  GI50: > 100 µM (inactive)
OVCAR-5
  GI50: > 100 µM (inactive)
OVCAR-4
  GI50: 32.5 µM (inactive)
NCI-H522
  GI50: 43.4 µM (inactive)
786-0
  GI50: 19 µM (inactive)
UACC-257
  GI50: > 100 µM (inactive)
OVCAR-3
  GI50: > 100 µM (inactive)
T47D
  GI50: 32 µM (inactive)
CAKI-1
  GI50: 64.3 µM (inactive)
EKVX
  GI50: > 100 µM (inactive)
NCI-H23
  GI50: 64.1 µM (inactive)
OVCAR-8
  GI50: 23.4 µM (inactive)
Malme-3M
  GI50: 66.4 µM (inactive)
HCC 2998
  GI50: > 100 µM (inactive)
NCI-H460
  GI50: > 100 µM (inactive)
MDA-MB-435
  GI50: > 100 µM (inactive)
MCF7
  GI50: > 100 µM (inactive)
SK-MEL-5
  GI50: > 100 µM (inactive)
SF-295
  GI50: 22.9 µM (inactive)
HCT-116
  GI50: 35.6 µM (inactive)
SK-OV-3
  GI50: 30.5 µM (inactive)
UO-31
  GI50: > 100 µM (inactive)
KM12
  GI50: > 100 µM (inactive)
DU-145
  GI50: > 100 µM (inactive)
SN12C
  GI50: > 100 µM (inactive)
MDA-MB-231
  GI50: 26.2 µM (inactive)
NCI/ADR-RES
  GI50: 61.1 µM (inactive)
ACHN
  GI50: 22.3 µM (inactive)
SNB-19
  GI50: 24.1 µM (inactive)
HOP-92
  GI50: 28.6 µM (inactive)
K562
  GI50: > 100 µM (inactive)
RXF 393
  GI50: 21.1 µM (inactive)
SW-620
  GI50: > 100 µM (inactive)
SNB-75
  GI50: 13.5 µM (inactive)
CCRF-CEM
  GI50: > 100 µM (inactive)
HCT-15
  GI50: > 100 µM
IGROV-1
  GI50: 43.6 µM (inactive)
HT-29
  GI50: > 100 µM (inactive)
A498
  GI50: 32 µM (inactive)

## CN1C2CC(C#N)C1C=CC2=O (stereo not given)
HL-60
  GI50: 18.9 µM (inactive) and 34.1 µM (inactive)
SK-MEL-2
  GI50: 29 µM (inactive) and 33.7 µM (inactive)
MCF7
  GI50: 33.3 µM (inactive) and 57.8 µM (inactive)
SK-OV-3
  GI50: 43.1 µM (inactive) and 24.8 µM (inactive)
SNB-19
  GI50: 87.1 µM (inactive)

## Cc1ncc([N+](=O)[O-])n1CC(O)Cn1ccnc1[N+](=O)[O-] (stereo not given)
RPMI-8226
  GI50: > 100 µM (inactive)
MOLT-4
  GI50: > 100 µM (inactive)
HL-60
  GI50: > 100 µM (inactive)
SK-MEL-28
  GI50: > 100 µM (inactive)
NCI-H226
  GI50: > 100 µM (inactive)
SF-539
  GI50: > 100 µM (inactive)
TK-10
  GI50: > 100 µM (inactive)
HOP-62
  GI50: > 100 µM (inactive)
SR
  GI50: > 100 µM (inactive)
A549
  GI50: > 100 µM (inactive)
SK-MEL-2
  GI50: > 100 µM (inactive)
SF-268
  GI50: > 100 µM (inactive)
PC-3
  GI50: > 100 µM (inactive)
U-251
  GI50: > 100 µM (inactive)
OVCAR-5
  GI50: > 100 µM (inactive)
NCI-H522
  GI50: > 100 µM (inactive)
786-0
  GI50: > 100 µM (inactive)
UACC-257
  GI50: > 100 µM (inactive)
OVCAR-3
  GI50: > 100 µM (inactive)
EKVX
  GI50: > 100 µM (inactive)
NCI-H23
  GI50: > 100 µM (inactive)
OVCAR-8
  GI50: > 100 µM (inactive)
Malme-3M
  GI50: > 100 µM (inactive)
HCC 2998
  GI50: > 100 µM (inactive)
NCI-H460
  GI50: > 100 µM (inactive)
MCF7
  GI50: > 100 µM (inactive)
SK-MEL-5
  GI50: > 100 µM (inactive)
SF-295
  GI50: > 100 µM (inactive)
HCT-116
  GI50: > 100 µM (inactive)
KM12
  GI50: > 100 µM (inactive)
Hs-578T
  GI50: > 100 µM (inactive)
SN12C
  GI50: > 100 µM (inactive)
ACHN
  GI50: > 100 µM (inactive)
K562
  GI50: > 100 µM (inactive)
SW-620
  GI50: > 100 µM (inactive)
SNB-75
  GI50: > 100 µM (inactive)
CCRF-CEM
  GI50: > 100 µM (inactive)
HCT-15
  GI50: > 100 µM
HT-29
  GI50: > 100 µM (inactive)
A498
  GI50: > 100 µM (inactive)
